Experimental findings from ChEMBL document CHEMBL1145242, “EB1627: a soluble prodrug of the potent anticancer cyanoguanidine CHS828” (Bioorg Med Chem Lett, 2005) are described below.

A short description of series [1]: Half life value at pH-7.4. The format is ADME.
A short description of series [2]: Half life value in human serum. The class given is ADME, cell-free.
Series [3] is described as follows: Inhibition of NYH Cell line. The conditions noted are these: Homo sapiens. The format is functional, cell-based.
Series [4] can be described thus: Solubility at pH-5.5. The class given is physicochemical.
Series [5] in a line: Solubility at pH-7.4. The format is physicochemical.

SMILES strings stand for the structures. Converted amounts (≈) assume the structure as drawn.

On to `COCCOCCOC(=O)OC[n+]1ccc(N/C(=N/CCCCCCOc2ccc(Cl)cc2)NC#N)cc1.[Cl-]`, for which the values for the half-life in series [1] and in series [2] were more than 240 min and 27 min, respectively. In addition, the IC50 in series [3] is 0.631 nM. The solubility was determined as 34 µg/mL in series [4] and 14 µg/mL in series [5].

Take `CC(C)[C@@H](N)C(=O)OC[n+]1ccc(N/C(=N/CCCCCCOc2ccc(Cl)cc2)NC#N)cc1`: half-maximal inhibition in series [3] (IC50) required 5.01 nM.

Regarding `COCCOCCOCCOC(=O)OC[n+]1ccc(N/C(=N/CCCCCCOc2ccc(Cl)cc2)NC#N)cc1.[Cl-]`, the figures for the half-life in series [1] and in series [2] were more than 240 min and 30 min, respectively. Also, half-maximal inhibition in series [3] (IC50) was put at 0.501 nM. For the same molecule, the solubility in series [4] was determined as 1200 µg/mL; in series [5], 83 µg/mL.

As for `Cl.N#CN/C(=N\CCCCCCOc1ccc(Cl)cc1)Nc1cc[n+](COC(=O)OCCCCCCCCCN)cc1.[Cl-]`, the half-life was more than 240 min in series [1] and 15 min in series [2]. This molecule had an IC50 in series [3] of 0.398 nM. In addition, the solubility in series [4] is more than 1200 µg/mL; in series [5], 38 µg/mL.

Consider `Cl.N#CN/C(=N\CCCCCCOc1ccc(Cl)cc1)Nc1cc[n+](COC(=O)NCCCN)cc1.[Cl-]`, for which the half-life in series [1] and in series [2] was more than 240 min in each case. In series [3], half-maximal inhibition (IC50) required 15.8 nM. Further, the solubility in series [4] was more than 1200 µg/mL; in series [5] it was 250 µg/mL.

On to `N#CN=C(NCCCCCCOc1ccc(Cl)cc1)Nc1ccncc1` [CHS-828], for which 0.501 nM corresponded to half-maximal inhibition in series [3] (IC50). Further, the results for the solubility in series [4] and in series [5] were 2 µg/mL (≈ 5.38 µM) and 0.5 µg/mL (≈ 1.34 µM), respectively.

`COCCOCCOCCOCCOC(=O)OC[n+]1ccc(N/C(=N/C#N)NCCCCCCOc2ccc(Cl)cc2)cc1.[Cl-]` [TEGLARINAD CHLORIDE]: the half-life is more than 240 min in series [1] and 25 min in series [2]. In series [3], this molecule showed an IC50 of 0.794 nM. Moreover, the results for the solubility in series [4] and in series [5] were more than 1200 µg/mL and 120 µg/mL, respectively.

For orientation: half-life means the time needed for the level to fall by half in the phase considered. A lower half-life goes with fast loss. Broadly, the IC50 is the midpoint of a concentration-inhibition curve. A high value points to lower potency. As a reminder, the solubility is how much of the substance goes into solution per volume. High values mean much dissolved substance, low ones little dissolved substance.
